# Literature values as cited in US6649645B1 (Pharmacia Corporation, priority 1998, dated 2003).
# Legend:
# [1] = Cynomolgus monkeys, orally for six weeks
# [2] = test system: fibroblast growth factor-induced corneal angiogenesis; details: rats; Masferrer et al. 1999
# [3] = mice, Milas et al., Cancer Res. 1990
smiles,measurement,setting,value
COc1ccc2c(c1)c(CC(=O)O)c(C)n2C(=O)c1ccc(Cl)cc1 [indomethacin],tumor cure rate after radiotherapy,tumor; [3],increases the tumor cure rate
same,tumor growth delay after radiotherapy,tumor; [3],prolongs tumor growth delay
same,enhancement factor (tumor curability),tumor; printed as 'radiation alone',1.26
same,enhancement factor (tumor growth delay),tumor; radiation-indomethacin,1.4
CN1C(C(=O)Nc2ccccn2)=C(O)c2sc(Cl)cc2S1(=O)=O [lornoxicam],Toxicity,[1],1 to 2 mg/kg/day
"Cc1ccc(-c2cc(C(F)(F)F)nn2-c2ccc(S(N)(=O)=O)cc2)cc1 [Celecoxib, Benzenesulfonamide, 4-(5-(4-methylphenyl)-3-(trifluoromethyl)-1H-pyrazol-1-yl)-]",inhibition of fibroblast growth factor-induced corneal angiogenesis,[2],potent inhibition
